# From patent US20250059187A1, “COVALENTLY BINDING INHIBITORS OF G12S, G12D AND/OR G12E MUTANTS OF K-RAS GTPASE” (The Regents of the University of California, priority 2021, published 2025)
# Tests used:
# Ba/F3:K-Ras(G12S) cells = assay: Phospho-ERK assay in Ba/F3:K-Ras(G12S) cells; assay type: cell-based, murine; conditions: 1 h treatment
# Experimental: Ba/F3 parental cells were pelleted and resuspend in IL-3 supplemented growth medium (RPMI 1640, 10% heat-inactivated FBS, 10 ng/mL mouse IL-3 medium) to 1×10^7/mL. Ba/F3 K-Ras(G12S) transductant cells were pelleted and resuspended in IL-3 free growth medium (RPMI 1640, 10% heat-inactivated FBS) to 1×10^7/mL. 25 μL cells were added to each well of a 96-well plate (2.5×10^5 cells/well), followed by 5 μL 6× compound solutions (6% DMSO). The mixture was incubated at 37° C. for 1 h. Cell lysis and subsequent high-throughput phospho-ERK assay was performed using Cisbio Advanced phospho-ERK (Thr202/Tyr204) cellular kit (PerkinElmer 64AERPEG) following the manufacturer's instructions.
# [1] = system: parental Ba/F3 cells (with IL-3); assay: Cell viability assay (CellTiter-Glo), parental Ba/F3 cells; assay type: cell-based, murine; conditions: Mus musculus, BaF3; +10 ng/mL IL-3, 72 h; read-out: IC50, growth of parental Ba/F3 cells
# Experimental: (§1) Cells were seeded into 96-well white flat bottom plates (1,000 cells/well) (Corning) and incubated overnight. […] Cell viability was assessed using a commercial CellTiter-Glo (CTG) luminescence-based assay (Promega). Briefly, the 96-well plates were equilibrated to room temperature before the addition of diluted CTG reagent […] (1:4 CTG reagent:PBS). Plates were placed on an orbital shaker for 30 min before recording luminescence using a Spark 20M (Tecan) plate reader.
# K-Ras G12E = target: T1, K-Ras G12E (Homo sapiens, UniProt P01116, G12E); assay: Covalent modification of test protein after incubation with compound; assay type: binding; conditions: 24-h incubation with 100 μM compound at 23° C. at pH 7.5
# T1 construct: human K-Ras (G12E, aa 1-169); 6xHis tag + TEV cleavage site (N, cleaved yes); made in house; host or cells: E. coli BL21(DE3)
# [2] = system: A375 cells (wild-type KRAS); assay: Immunoblot in A375 cells; assay type: cell-based; conditions: 10 μM, 2 h
# Experimental: (§2) Cells were passed for at least two generations after cryorecovery before they were used for assays. All cell lines were tested mycoplasma negative using MycoAlert™ Mycoplasma Detection Kit (Lonza). When indicated, cells were treated with drugs at 40-60% confluency at a final DMSO concentration of 1%. At the end of treatment period, cells were placed on ice. Unless otherwise indicated, adherent cells were washed once with ice-cold PBS (1 mL), scraped with a spatula, and pelleted by centrifugation (500×g, 5 min). Suspension cells were pelleted by centrifugation (500×g, 5 min), washed with 1 mL ice-cold PBS, and pelleted again. Cells were lysed in RIPA buffer supplemented with protease and phosphatase inhibitors (cOmplete and phosSTOP, Roche) on ice for 10 min. For RBD pulldown experiments, cells were lysed in Co-IP Lysis Buffer in lieu of RIPA buffer. Lysates were clarified by high-speed centrifugation (19,000×g, 10 min). Concentrations of lysates were determined with protein BCA assay (Thermo Fisher) and adjusted to 2 mg/mL with additional RIPA buffer (or Co-IP Lysis Buffer). […]
# (§3) Unless otherwise noted, SDS-PAGE was run with Novex 16% Bis-Tris gel (Invitrogen) in MES running buffer (Invitrogen) at 200 V for 60 min following the manufacturer's instructions. […] The membrane was washed three times with TBST (5 min each wash) and imaged on a Li-COR Odyssey fluorescence imager.
# K-Ras G12D = target: T2, K-Ras G12D (Homo sapiens, UniProt P01116, G12D); assay: Covalent modification of test protein after incubation with compound; assay type: binding; conditions: 24-h incubation with 100 μM compound at 23° C. at pH 7.5
# T2 construct: human K-Ras (G12D, aa 1-169); 6xHis tag + TEV cleavage site (N, cleaved yes); made in house; host or cells: E. coli BL21(DE3)
# [3] = system: H358 cells (heterozygous KRAS p.G12C); assay: Immunoblot in H358 cells; assay type: cell-based; conditions: 10 μM, 2 h
# Experimental: as §2, §3
# [4] = system: cell lines with confirmed KRAS p.G12S mutations; assay: Immunoblot in four cell lines with confirmed KRAS p.G12S mutations; assay type: cell-based; conditions: 10 μM, 2 h
# Experimental: as §2, §3
# [5] = system: Ba/F3:K-Ras(G12S) cells (without IL-3); assay: Cell viability assay (CellTiter-Glo), Ba/F3:K-Ras(G12S) cells; assay type: cell-based, murine
# Experimental: as §1
# [6] = system: A549 cells (homozygous KRAS p.G12S mutation); assay: Immunoblot and Raf-RBD pulldown in A549 cells; assay type: cell-based; conditions: 2 h
# Experimental: Cells were passed for at least two generations after cryorecovery before they were used for assays. All cell lines were tested mycoplasma negative using MycoAlert™ Mycoplasma Detection Kit (Lonza). When indicated, cells were treated with drugs at 40-60% confluency at a final DMSO concentration of 1%. At the end of treatment period, cells were placed on ice. Unless otherwise indicated, adherent cells were washed once with ice-cold PBS (1 mL), scraped with a spatula, and pelleted by centrifugation (500×g, 5 min). Suspension cells were pelleted by centrifugation (500×g, 5 min), washed with 1 mL ice-cold PBS, and pelleted again. Cells were lysed in RIPA buffer supplemented with protease and phosphatase inhibitors (cOmplete and phosSTOP, Roche) on ice for 10 min. For RBD pulldown experiments, cells were lysed in Co-IP Lysis Buffer in lieu of RIPA buffer. Lysates were clarified by high-speed centrifugation (19,000×g, 10 min). Concentrations of lysates were determined with protein BCA assay (Thermo Fisher) and adjusted to 2 mg/mL with additional RIPA buffer (or Co-IP Lysis Buffer). Samples were mixed with 5×SDS Loading Dye and heated at 95° C. for 5 min.
# Ras·GTP pulldown was performed with GST-RBD agarose beads (Cytoskeleton, 10 μL, 30 μg loaded GST-RBD). 50 μL lysate (2 mg/mL) was mixed with 10 μL beads, and the suspension was incubated at 4° C. for 1 h with constant end-to-end rotation. The beads were settled by centrifugation (500×g, 5 min) and the supernatant was carefully removed. The beads were washed with 2×500 μL ice-cold Co-IP wash buffer. Bound protein was eluted with 10 μL 2×SDS Loading Buffer.
# Membranes were blocked in 5% BSA-TBST for 1 h at 23° C. […] After washing the membrane three times with TBST (5 min each wash), secondary antibodies (goat anti-rabbit IgG-IRDye 800 and goat anti-mouse IgG-IRDye 680, Li-COR) were added as solutions in 5% skim milk-TBST at the dilutions recommended by the manufacturer. Secondary antibody binding was allowed to proceed for 1 h at 23° C. The membrane was washed three times with TBST (5 min each wash) and imaged on a Li-COR Odyssey fluorescence imager.
# [7] = system: SW1990 cells (homozygous KRAS p.G12D); assay: Immunoblot in SW1990 cells (G12S ligand); assay type: cell-based; conditions: 10 μM, 2 h
# Experimental: as §2, §3
compound,measurement,setting,value
O=C1O[C@H]2CN(c3nc(OCC45CCCN4CCC5)nc4c(F)c(-c5cccc6cccc(Cl)c56)ncc34)CC[C@@H]12 [5′],phospho-ERK levels,Ba/F3:K-Ras(G12S) cells,dose-dependent reduction of phospho-ERK levels
same,IC50,[1],12500 nM
same,% covalent modification of K-Ras G12E,K-Ras G12E,0%
same,signaling in A375 cells,[2],did not perturb the signaling
same,% covalent modification of K-Ras G12D,K-Ras G12D,0%
same,phospho-Erk in H358 cells,[3],weak inhibition of phospho-Erk
same,phospho-ERK level and K-Ras gel mobility,[4],reduction of phospho-ERK level and gel mobility shift of the K-Ras protein
same,"selectivity, Ba/F3:K-Ras(G12S) over parental Ba/F3 cells",[5],five-fold
same,IC50,"[5]; Mus musculus, BaF3, no IL-3, 72 h, read-out: IC50, growth of K-Ras(G12S)-transduced Ba/F3 cells",2400 nM
same,"effects on phospho-Akt, phospho-Erk and Ras·GTP levels",[6]; 10 μM,nearly complete loss of Ras·GTP and concomitant inhibition of phospho-Erk
same,IC50,"[6]; Homo sapiens, A549 cells, read-out: apparent IC50, inhibition of Ras signaling",~3000 nM
same,signaling in SW1990 cells,[7],did not perturb the signaling
